Structures can show the parent of a compound that is named as a salt.
These molecules were tested against AaDOP2 (Aedes aegypti, UniProt H6D5H2) (assay: HTRF cAMP accumulation concentration response assay (Cisbio Dynamic 2)). Conditions: not given.
Type: cell-based

AaDOP2, sequence (H6D5H2 entry or part of it): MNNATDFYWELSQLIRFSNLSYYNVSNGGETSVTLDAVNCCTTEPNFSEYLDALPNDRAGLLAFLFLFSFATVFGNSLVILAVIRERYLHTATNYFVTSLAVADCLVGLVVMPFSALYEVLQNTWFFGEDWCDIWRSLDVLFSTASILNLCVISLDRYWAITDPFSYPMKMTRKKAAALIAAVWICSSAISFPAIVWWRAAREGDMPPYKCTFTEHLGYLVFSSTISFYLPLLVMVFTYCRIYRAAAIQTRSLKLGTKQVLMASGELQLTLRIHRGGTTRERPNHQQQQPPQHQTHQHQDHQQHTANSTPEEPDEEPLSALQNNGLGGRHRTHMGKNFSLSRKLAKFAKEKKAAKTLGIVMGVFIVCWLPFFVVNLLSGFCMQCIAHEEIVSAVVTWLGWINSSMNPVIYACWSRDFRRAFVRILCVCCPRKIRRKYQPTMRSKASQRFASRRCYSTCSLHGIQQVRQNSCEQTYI

SMILES	IC50 [nM]
CCc1nn(CCCN2CCN(c3cccc(Cl)c3)CC2)c(=O)n1CCOc1ccccc1 [Nefazodone HCl, 2-[3-[4-(3-chlorophenyl)-1-piperazinyl]propyl]-5-ethyl-2,4-dihydro-4-(2-phenoxyethyl)-3H-1,2,4-triazol-3-one hydrochloride]	4880
CN(C)CCOc1ccc(/C(=C(/CCCl)c2ccccc2)c2ccccc2)cc1 [Toremifene citrate salt, (Z)-2-(4-(4-Chloro-1,2-diphenyl-1-butenyl)phenoxy)-N,N-dimethylethanamine]	44900
CN1CCCC(n2nc(Cc3ccc(Cl)cc3)c3ccccc3c2=O)CC1 (stereo not shown) [Azelastine HCl, 4-[(4-chlorophenyl)methyl]-2-(1-methylazepan-4-yl)phthalazin-1-one hydrochloride]	47500

Same assay, conditions: AaDOP2 expressing cells in the presence of dopamine; No Inhibition = <10% inhibition at 3 μM test compound

SMILES	IC50 ± S.E.M. (nM), HTRF cAMP assay
Cc1ccc(/N=C/N(C)/C=N/c2ccc(C)cc2C)c(C)c1 [Amitraz]	No Inhibition^a
O=C1CC2(CCCC2)CC(=O)N1CCCCN1CCN(c2ncccn2)CC1 [Buspirone]	No Inhibition^a

Same assay, conditions: AaDOP2 expressing cells in the presence of dopamine; No Inhibition = <10% inhibition at 3 μM test compound; read-out: IC50 ± S.E.M. (nM), HTRF cAMP assay

SMILES	IC50 [nM]
CCOC(=O)N1CCC(=C2c3ccc(Cl)cc3CCc3cccnc32)CC1 [Loratidine]	18000
Cc1nc2sccn2c(=O)c1CCN1CCC(=C(c2ccccc2)c2ccc(F)cc2)CC1 [Compound R59-022]	53 ± 13

Same assay, conditions: Avg IC50 (μM), in vitro Concentration Response Curve assay, n = 2, relative to control antagonist Amitriptyline

SMILES	IC50 [nM]
COc1ccccc1OCCNCC(O)COc1cccc2[nH]c3ccccc3c12 (stereo not shown) [Carvedilol, 1-(9H-Carbazol-4-yloxy)-3-[[2-(2-methoxyphenoxy)ethyl]amino]-2-propanol]	8500

Same assay, conditions: in vitro Concentration Response Curve assay, n = 2, relative to control antagonist Amitriptyline; read-out: Avg IC50

SMILES	IC50 [nM]
Cc1ccc(N(CC2=NCCN2)c2cccc(O)c2)cc1 [Phentolamine HCl, 2-[N-(3-Hydroxyphenyl)-p-toluidinomethyl]-2-imidazolidine hydrochloride]	9030
COc1ccc(Nc2cc(C)nc(Nc3ccc(NC(=O)c4c(F)cccc4Cl)cc3)n2)cc1 [Compound G869-0304, 2-chloro-6-fluoro-N-(4-((4-((4-methoxyphenyl)amino)-6-methylpyrimidin-2-yl)amino)phenyl)benzamide]	7170
O=C(NCC1CCCCN1)c1cc(OCC(F)(F)F)ccc1OCC(F)(F)F (stereo not shown) [Flecainide Acetate, N-(2-Piperidylmethyl)-2,5-bis-(2,2,2-trifluoroethoxy)benzamide acetate salt]	318
CCC(CC)c1nc(Nc2ccc(C(=O)OC)cc2)c2ccccc2n1 [ST029812, methyl 4-{[2-(ethylpropyl)quinazolin-4-yl]amino}benzoate]	8930
N=C1SC(=Cc2cc3c(cc2Br)OCO3)C(=O)N1c1ccc(OC(F)(F)F)cc1 [ST052085, 5-[(6-bromo(2H-benzo[d]1,3-dioxolen-5-yl))methylene]-2-imino-3-[4-(trifluoromethoxy)phenyl]-1,3-thiazolidin-4-one]	74200
COc1ccc(Nc2cc(C)nc(Nc3ccc(NC(=O)C(C)(C)C)cc3)n2)cc1 [Compound G869-0273, N-(4-((4-((4-methoxyphenyl)amino)-6-methylpyrimidin-2-yl)amino)phenyl)pivalamide]	5090
c1ccc(CCNc2nc(N3CCNCC3)nc3ccccc23)cc1 [ST095663, (phenylethyl)(2-piperazinylquinazolin-4-yl)amine]	4840
CC(C)(O)C#Cc1ccc2c3c(cccc13)C(=O)OC2=O [ST010134, 6-(3-hydroxy-3-methyl-but-1-ynyl)-benzo(de)isochromene-1,3-dione]	952
O=C1[C@H]2CCCC[C@H]2C(=O)N1CCCCN1CCN(c2nsc3ccccc23)CC1 [Peropirone Hcl, (3aR,7aS)-2-{4-[4-(1,2-benzisothiazol-3-yl)piperazin-1-yl]butyl}hexahydro-1H-isoindole-1,3(2H)-dione]	186
CCCN1C[C@H](CSC)C[C@@H]2c3cccc4[nH]cc(c34)C[C@H]21 [Pergolide Mesylate, 8β-[(Methylthio)methyl]-6-propylergoline methanesulfonate salt]	704
CC1CCC(C(C)C)C(OC(=O)C(=O)c2ccccc2)C1 (stereo not shown) [ST070482, 5-methyl-2-(methylethyl)cyclohexyl 2-oxo-2-phenylacetate]	32400
COc1cc(OC)cc(C(=O)Nc2ccc(Nc3nc(C)cc(Nc4ccccc4)n3)cc2)c1 [Compound G869-0121, 3,5-dimethoxy-N-(4-((4-methyl-6-(phenylamino)pyrimidin-2-yl)amino)phenyl)benzamide]	2220
CCOC(=O)c1c(C)n(-c2ccccc2)c2cc(Br)c(OC)cc12 [ST002262, ethyl 6-bromo-5-methoxy-2-methyl-1-phenylindole-3-carboxylate]	4860
COc1ccc(Nc2cc(C)nc(Nc3ccc(NC(=O)CC(C)(C)C)cc3)n2)cc1 [Compound G869-0275, N-(4-((4-((4-methoxyphenyl)amino)-6-methylpyrimidin-2-yl)amino)phenyl)-3,3-dimethylbutanamide]	9020
CC(COc1ccccc1Cc1ccccc1)N1CCCCC1 (racemic) [Benproperine phosphate, (RS)-1-[2-(2-benzylphenoxy)-1-methylethyl]piperidine]	4510
O=[N+]([O-])C1=Cc2ccccc2OC1c1ccc2c(c1)OCO2 (stereo not shown) [ST038696, 5-(3-nitro-2H-chromen-2-yl)-2H-benzo[d]1,3-dioxolane]	5510
COc1ccc(Nc2cc(C)nc(Nc3ccc(NC(C)=O)cc3)n2)cc1 [Compound G869-0268, N-(4-((4-((4-methoxyphenyl)amino)-6-methylpyrimidin-2-yl)amino)phenyl)acetamide]	13200

Next, values leading:

IC50 [nM]	SMILES
4540	CCN1CCN(c2nc(Nc3ccc(F)cc3)c3cnn(-c4ccccc4)c3n2)CC1 [Compound G932-0345, 6-(4-ethylpiperazin-1-yl)-N-(4-fluorophenyl)-1-phenyl-1H-pyrazolo[3,4-d]pyrimidin-4-amin]
4510	CCC(CC)c1nc(Nc2ccc(C)c(Cl)c2)c2ccccc2n1 [ST029892, (3-chloro-4-methylphenyl)[2-(ethylpropyl)quinazolin-4-yl]amine]
7510	Cc1cc(Nc2ccccc2)nc(Nc2ccc(NC(=O)c3ccccc3Cl)cc2)n1 [Compound G869-0127, 2-chloro-N-(4-((4-methyl-6-(phenylamino)pyrimidin-2-yl)amino)phenyl)benzamide]
2500	CN1CCN(c2nc(Nc3ccc(F)cc3)c3cnn(-c4ccccc4)c3n2)CC1 [Compound G932-0329, N-(4-fluorophenyl)-6-(4-methylpiperazin-1-yl)-1-phenyl-1H-pyrazolo[3,4-d]pyrimidin-4-amine]
6050	CCCC(=O)Nc1ccc(Nc2nc(C)cc(Nc3ccccc3)n2)cc1 [Compound G869-0097, N-(4-((4-methyl-6-(phenylamino)pyrimidin-2-yl)amino)phenyl)butyramide]
4550	Cc1ccc(Nc2nc(N3CCN(C)CC3)nc3c2cnn3-c2ccccc2)cc1 [Compound G932-0029, 6-(4-methylpiperazin-1-yl)-1-phenyl-N-(p-tolyl)-1H-pyrazolo[3,4-d]pyrimidin-4-amine]
8860	Cc1ccccc1Nc1nc(Nc2ccccc2C)c2ccccc2n1 [ST027415, (2-methylphenyl){2-[(2-methylphenyl)amino]quinazolin-4-yl}amine]
1480	OCCN1CCN(c2nc(Nc3cccc(F)c3)c3cnn(-c4ccccc4)c3n2)CC1 [Compound G932-0674, 2-(4-(4-((3-fluorophenyl)amino)-1-phenyl-1H-pyrazolo[3,4-d]pyrimidin-6-yl)piperazin-1-yl)ethanol]
11600	Cc1cc(Nc2ccccc2)nc(Nc2ccc(NC(=O)C3CCCCC3)cc2)n1 [Compound G869-0105, N-(4-((4-methyl-6-(phenylamino)pyrimidin-2-yl)amino)phenyl)cyclohexanecarboxamide]
1170	OCCN1CCN(c2nc(Nc3ccccc3)c3cnn(-c4ccccc4)c3n2)CC1 [Compound G932-0232, 2-(4-(1-phenyl-4-(phenylamino)-1H-pyrazolo[3,4-d]pyrimidin-6-yl)piperazin-1-yl)ethanol]
557	CCN1CCN(c2nc(Nc3ccccc3)c3cnn(-c4ccccc4)c3n2)CC1 [Compound G932-0245, 6-(4-ethylpiperazin-1-yl)-N,1-diphenyl-1H-pyrazolo[3,4-d]pyrimidin-4-amine]
5950	CCCCC(=O)Nc1ccc(Nc2nc(C)cc(Nc3ccccc3)n2)cc1 [Compound G869-0099, N-(4-((4-methyl-6-(phenylamino)pyrimidin-2-yl)amino)phenyl)pentanamide]
5130	CCN(CC)CCNc1nc(Nc2ccc(Cl)cc2)c2cnn(-c3ccccc3)c2n1 [Compound G932-0372, N4-(4-chlorophenyl)-N6-(2-(diethylamino)ethyl)-1-phenyl-1H-pyrazolo[3,4-d]pyrimidine-4,6-diamine]
585	CN1CCN(c2nc(Nc3cccc(F)c3)c3cnn(-c4ccccc4)c3n2)CC1 [Compound G932-0671, N-(3-fluorophenyl)-6-(4-methylpiperazin-1-yl)-1-phenyl-1H-pyrazolo[3,4-d]pyrimidin-4-amine]
3100	Cc1cc(Nc2ccccc2)nc(Nc2ccc(NC(=O)C(C)C)cc2)n1 [Compound G869-0098, N-(4-((4-methyl-6-(phenylamino)pyrimidin-2-yl)amino)phenyl)isobutyramide]
3980	CN1CCN(c2nc(Nc3ccc(Cl)cc3)c3cnn(-c4ccccc4)c3n2)CC1 [Compound G932-0379, N-(4-chlorophenyl)-6-(4-methylpiperazin-1-yl)-1-phenyl-1H-pyrazolo[3,4-d]pyrimidin-4-amine]
9230	Cc1cc(N2CCCC2)nc(Nc2ccc(NC(=O)Cc3ccccc3)cc2)n1 [Compound G869-0499, N-(4-((4-methyl-6-(pyrrolidin-1-yl)pyrimidin-2-yl)amino)phenyl)-2-phenylacetamide]
19400	Cc1cc(N2CCCC2)nc(Nc2ccc(NC(=O)c3ccccc3Br)cc2)n1 [Compound G869-0472, 2-bromo-N-(4-((4-methyl-6-(pyrrolidin-1-yl)pyrimidin-2-yl)amino)phenyl)benzamide]
